# “And” between values parts separate entries of the source, which are not always exact repeats. Equal values may be shown once. *1 amine or outer side, *2 acyl side, *3 side chain or, on linkers, in order; H or OH if unused. Where a SMILES comes first, the peptide text is derived from it. Where no end group is shown, it is not given here. [ ]: non-standard residue; d: D form. The star is where a group is joined. ξ: configuration not given here. ξ3Amino2oxobutanoyl = CC(N[*:1])C(=O)C(=O)[*:2]; Abu(ψCOCO) = CC[C@H](N[*:1])C(=O)C(=O)[*:2]; AMC = Cc1cc(=O)oc2cc(N*)ccc12; βAla = NCCC(=O)O; NHcPr = C1CC1N*
# T1: recombinant Plasmodium falciparum subtilisin-like protease 1 (rPfSUB1), p54/p47 protease species (Plasmodium falciparum, UniProt O61142 218-690)
# T1 sequence: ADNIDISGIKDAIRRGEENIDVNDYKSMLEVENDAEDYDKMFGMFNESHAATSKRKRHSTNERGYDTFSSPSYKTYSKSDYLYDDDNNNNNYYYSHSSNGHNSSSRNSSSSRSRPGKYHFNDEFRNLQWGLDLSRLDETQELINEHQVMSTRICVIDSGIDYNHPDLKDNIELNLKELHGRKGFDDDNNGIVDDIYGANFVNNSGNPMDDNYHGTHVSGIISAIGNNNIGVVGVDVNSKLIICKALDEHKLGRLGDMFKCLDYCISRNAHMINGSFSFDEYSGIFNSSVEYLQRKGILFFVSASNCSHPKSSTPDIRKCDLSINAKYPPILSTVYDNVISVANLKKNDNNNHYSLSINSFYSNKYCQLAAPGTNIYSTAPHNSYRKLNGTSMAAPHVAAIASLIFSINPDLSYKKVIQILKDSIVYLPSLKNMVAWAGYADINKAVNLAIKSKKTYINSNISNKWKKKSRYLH
# Tests used:
# rPfSUB1cat [1] = target: T2, rPfSUB1cat (Plasmodium falciparum, UniProt Q8I0V0); assay: Cleavage of unlabelled and AMC peptide substrates by rPfSUB1cat (RP-HPLC); type: biochemical; details: for hydrolysis by rPfSUB1cat: prolonged incubations, data not shown; for reduction of substrate peak intensity: by 120 min digestion of equimolar mixture, RP-HPLC
# T2 construct: core domain (rPfSUB1cat) comprising Ser328 to Tyr671; made in house; host or cells: baculovirus-infected insect cells (Tn5), then limited chymotrypsin digestion
# Excerpt: (SERA4st1F-6R12); Ac-CITAQDDEEC (called SERA4st1F-6R); and Ac-[…] (SERA4st1F-6R-S). […] Initial hydrolysis rates were then plotted against inhibitor concentration.
# In a third approach to investigating the role of prime side interactions in PfSUB1–substrate recognition, we produced a modified form of the SERA4st1 peptide substrate (called SERA4st1-ADA) in which both the P1′ and P3′ residues were replaced by Ala. Based on our MD data, these substitutions would be predicted to abolish potentially important stabilizing interactions with the S′ surface of the enzyme. To compare cleavage efficiencies of SERA4st1 and SERA4st1-ADA, we used a previously-described method in which an equimolar mixture of the two peptides was supplemented with rPfSUB1cat and the rates of peptide hydrolysis established by RP-HPLC analysis of the resulting digestion products ([Child et al., 2010]). Under such conditions, because the peptides effectively act as competing substrates, their relative initial rates of hydrolysis are solely a function of the ability of PfSUB1 to discriminate between them, and so are directly proportional to their relative kcat/Km values, irrespective of their concentration ([Cornish-Bowden, 2004]).
# [2] = target: rPfSUB1cat (recombinant P. falciparum SUB1 catalytic domain) (Plasmodium falciparum, UniProt Q8I0V0); assay: biochemical; details: for IC50: IC50 for steady-state inhibition of rPfSUB1cat, dose-response, substrate 0.1 μM
# rPvSUB1 = target: T3, rPvSUB1 (Plasmodium vivax, UniProt E6Y8B9); assay: biochemical; details: IC50 against rPvSUB1, dose-response
# T3 construct: 6-His (C); made in house; host or cells: baculovirus-infected insect cells (Tn5), then limited chymotrypsin digestion
# T3 sequence (E6Y8B9 287-604): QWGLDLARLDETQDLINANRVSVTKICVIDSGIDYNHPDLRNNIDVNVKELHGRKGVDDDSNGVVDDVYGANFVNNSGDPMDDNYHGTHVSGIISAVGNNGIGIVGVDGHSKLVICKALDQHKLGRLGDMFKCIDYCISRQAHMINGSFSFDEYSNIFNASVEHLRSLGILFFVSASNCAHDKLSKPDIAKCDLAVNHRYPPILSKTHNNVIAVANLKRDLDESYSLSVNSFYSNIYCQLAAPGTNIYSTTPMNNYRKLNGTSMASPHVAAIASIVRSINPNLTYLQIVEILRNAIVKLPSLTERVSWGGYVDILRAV
# Excerpt: (§1) Initial hydrolysis rates were then plotted against inhibitor concentration.
# PbSUB1 = target: T4, PbSUB1 (Plasmodium berghei, UniProt A0A509AM03); assay: biochemical
# T4 construct: recombinant Plasmodium falciparum SUB1 catalytic domain (rPfSUB1cat; closed circles) and rPbSUB1cat (closed triangles); 6-His (C); made in house; host or cells: baculovirus-infected insect cells (Tn5), then limited chymotrypsin digestion
# T4 sequence (A0A509AM03 257-574): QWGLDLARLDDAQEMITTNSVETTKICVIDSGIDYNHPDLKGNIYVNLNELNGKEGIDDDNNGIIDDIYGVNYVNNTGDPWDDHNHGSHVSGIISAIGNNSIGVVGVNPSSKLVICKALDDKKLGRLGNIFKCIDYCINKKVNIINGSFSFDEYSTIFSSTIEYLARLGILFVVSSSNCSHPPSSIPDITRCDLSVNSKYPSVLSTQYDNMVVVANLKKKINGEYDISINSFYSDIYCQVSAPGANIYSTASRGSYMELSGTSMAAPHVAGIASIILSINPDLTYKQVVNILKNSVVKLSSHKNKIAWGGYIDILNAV
# Excerpt: as §1
# PfSUB1 = details: cited from earlier work
# rPfSUB1cat [3] = target: T2, rPfSUB1cat; type: biochemical; details: substrates 0.1 μM
# Excerpt: as §1
# rPbSUB1cat = details: substrates 0.1 μM
# Excerpt: as §1
# rPbSUB1 = target: T5, rPbSUB1 (Plasmodium berghei, UniProt A0A509AM03); assay: Cleavage of unlabelled N-acetylated decapeptides by rPbSUB1 (RP-HPLC); type: biochemical; details: RP-HPLC examination of digestion products
# T5 construct: recombinant Plasmodium falciparum SUB1 catalytic domain (rPfSUB1cat; closed circles) and rPbSUB1cat (closed triangles); 6-His (C); made in house; host or cells: baculovirus-infected insect cells (Tn5), then limited chymotrypsin digestion
# T5 sequence (A0A509AM03 257-574): as above
# [4] = target: T1, recombinant Plasmodium falciparum …; assay: cell-based or functional assay
# [5] = ref Withers-Martinez et al., 2002
molecule,measurement,setting,value
CC[C@H](C)[C@H](NC(=O)[C@H](CCCCN)NC(C)=O)C(=O)N[C@H](C(=O)N[C@@H](C)C(=O)N[C@@H](CCC(N)=O)C(=O)Nc1ccc2c(C)cc(=O)oc2c1)[C@@H](C)O [Ac-KITAQ-AMC] (Ac-KITAQ-{AMC}),hydrolysis by rPfSUB1cat,rPfSUB1cat [1],completely resistant to hydrolysis
CC[C@H](NC(=O)[C@H](C)NC(=O)[C@@H](NC(=O)[C@@H](NC(=O)[C@H](CCCCN)NC(C)=O)[C@@H](C)CC)[C@@H](C)O)C(=O)C(=O)NC1CC1 [KS-182] (Ac-KITA[Abu(ψCOCO)]-NHcPr),Ki,[2],7.3 µM
same,IC50,[2],~6 µM and 6 µM
same,IC50,rPvSUB1,~12 µM and 12 µM
same,IC50,PbSUB1,≥ 100 µM
CC[C@H](C)[C@H](NC(=O)[C@H](CCCCN)NC(C)=O)C(=O)N[C@H](C(=O)N[C@@H](C)C(=O)NC(C)C(=O)C(=O)NCCC(=O)O)[C@@H](C)O (stereo partly shown) [KS-466] (Ac-KITA[ξ3Amino2oxobutanoyl][βAla]-OH),Ki,[2],0.7 µM
same,IC50,[2],1 µM and ~1 µM
same,IC50,rPvSUB1,2 µM and ~2 µM
"O=S(=O)(F)Cc1ccccc1 [PMSF, phenylmethylsulfonyl fluoride]",effect of PMSF on PfSUB1,PfSUB1; [5],unaffected
"O=C(O)c1cc[c]([Hg][OH])cc1 [pHMB, para-hydroxymercuribenzoate]",inhibition of PfSUB1 by pHMB,PfSUB1; [5],potently inhibited
Ac-CITAQSDEEC (cysteine pairing not given here) [SERA4st1F-6R-S],effect of P1′ Asp to Ser substitution (vs SERA4st1F-6R) on cleavage by rPfSUB1cat,rPfSUB1cat [3],no significant effect
same,fold increase in initial hydrolysis rate by rPbSUB1cat vs SERA4st1F-6R,rPbSUB1cat,5.8 fold
Ac-DVSGQ↓SENHQ [Ac-DVSGQ ↓ SENHQ],cleavage by rPbSUB1 at the expected position,rPbSUB1,correctly cleaved
Ac-EIKAET,hydrolysis by rPfSUB1cat,rPfSUB1cat [1],No hydrolysis
"Ac-KITAQADAES [SERA4st1-ADA, SERA4st1 with P1′ and P3′ residues replaced by Ala]",reduction of substrate peak intensity,rPfSUB1cat [1],~1%
same,"initial cleavage rate, fold lower than that of parental SERA4st1","rPfSUB1cat [1]; equimolar mixture of both peptides, SERA4st1 digested ⩽20%",at least 80 fold
"Ac-KITAQDDEES [SERA4st1, N-acetylated decapeptide based on a PfSUB1 processing site in SERA4]",reduction of substrate peak intensity,rPfSUB1cat [1],84.6%
Ac-TTRAE↓SEEDI [Ac-TTRAE ↓ SEEDI],cleavage by rPbSUB1 at the expected position,rPbSUB1,correctly cleaved
Ac-TTSGQ↓SSTEP [Ac-TTSGQ ↓ SSTEP],cleavage by rPbSUB1 at the expected position,rPbSUB1,correctly cleaved
Ac-VVTGE↓SEETS [Ac-VVTGE ↓ SEETS],cleavage by rPbSUB1 at the expected position,rPbSUB1,correctly cleaved
PfSUB1 prodomain (PD) released by autocatalytic cleavage of rPfSUB1 (domain or fragment) KEVRSEENGKIQDDAKKIVSELRFLEKVEDVIEKSNIGGNEVDADENSFNPDTEVPIEEIEEIKMRELKDVKEEKNKNDNHNNNNNNNNISSSSSSSSNTFGEEKEEVSKKKKKLRLIVSENHATTPSFFQESLLEPDVLSFLESKGNLSNLKNINSMIIELKEDTTDDELISYIKILEEKGALIESDKLVS,inhibitor potency against cognate enzyme,"PfSUB1; ref Jean et al., 2003",~5 nM
same,initial rate of cleavage of fluorogenic substrate SERA4st1F-6R12 (0.1 uM) by rPfSUB1cat (prodomain largely degraded) against an equivalent mass of untreated rPfSUB1 (with its prodomain),[4],9.8 fold

# Reference: article PMC3378952, “Plasmodium subtilisin-like protease 1 (SUB1): Insights into the active-site structure, specificity and function of a pan-malaria drug target” (International Journal for Parasitology, 2012)
